Experimental data taken from ChEMBL document CHEMBL1128904, “Synthesis and biological activity of 1-alkylcarbonylmethyl analogues of YM022” (Bioorg Med Chem Lett, 1996).
The source made the active and inactive calls. No cut-off for these calls is given here.

Assays:
Rattus norvegicus [1] = test: Compound was evaluated for in vivo inhibition of pentagastrin induced gastric acid secretion in rats by 50% after iv administration; assay type: functional; settings: Stomach
Rattus norvegicus [2] = test: Compound was evaluated for in vivo inhibition of pentagastrin induced gastric acid secretion in rats after id administration at dose of 0.3 umol/kg; assay type: functional; settings: Stomach
[3] = target: T1, Gastrin/cholecystokinin type B receptor (Rattus norvegicus, UniProt P30553); test: Ability to displace [125I]CCK-8 from gastrin/Cholecystokinin type B receptor from rat brain; assay type: tissue-based
T1 sequence (P30553 whole entry): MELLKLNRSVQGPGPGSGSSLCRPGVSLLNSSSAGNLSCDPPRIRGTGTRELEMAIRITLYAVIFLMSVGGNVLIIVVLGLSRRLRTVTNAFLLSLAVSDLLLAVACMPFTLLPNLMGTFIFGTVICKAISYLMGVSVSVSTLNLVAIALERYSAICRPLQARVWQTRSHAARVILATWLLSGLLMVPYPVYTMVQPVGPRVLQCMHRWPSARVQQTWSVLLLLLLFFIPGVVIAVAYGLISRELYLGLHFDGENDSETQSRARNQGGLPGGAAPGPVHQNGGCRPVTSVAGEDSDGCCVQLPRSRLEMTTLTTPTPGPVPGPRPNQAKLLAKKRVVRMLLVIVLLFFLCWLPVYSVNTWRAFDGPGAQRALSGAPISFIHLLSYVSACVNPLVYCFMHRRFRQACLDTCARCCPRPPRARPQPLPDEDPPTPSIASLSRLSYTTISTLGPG

Rattus norvegicus [4] = test: Compound was evaluated for in vivo inhibition of pentagastrin induced gastric acid secretion in rats after iv administration at dose of 0.03 umol/kg; assay type: functional; settings: Stomach
[5] = target: T2, Cholecystokinin receptor type A (Rattus norvegicus, UniProt P30551); test: Compound was evaluated for its ability to displace [3H]L-364718 from Cholecystokinin type A receptor from rat pancreas
T2 sequence (P30551 whole entry): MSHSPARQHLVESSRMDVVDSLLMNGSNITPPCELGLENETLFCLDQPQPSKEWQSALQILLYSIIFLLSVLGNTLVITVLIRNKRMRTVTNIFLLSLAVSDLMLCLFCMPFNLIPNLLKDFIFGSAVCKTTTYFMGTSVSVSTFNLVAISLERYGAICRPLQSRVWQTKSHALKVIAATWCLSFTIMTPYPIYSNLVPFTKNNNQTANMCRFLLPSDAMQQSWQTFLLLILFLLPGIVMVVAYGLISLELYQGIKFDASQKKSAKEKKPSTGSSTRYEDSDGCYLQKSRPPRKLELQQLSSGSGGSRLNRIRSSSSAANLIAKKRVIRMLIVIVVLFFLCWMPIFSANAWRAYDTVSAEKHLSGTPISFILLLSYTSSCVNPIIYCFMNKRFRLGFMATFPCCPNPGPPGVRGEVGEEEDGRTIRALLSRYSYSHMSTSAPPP

Rattus norvegicus [6] = test: Compound was evaluated for inhibition of pentagastrin induced gastric acid secretion in rats by 50% after iv administration; assay type: functional; settings: Stomach
Rattus norvegicus [7] = test: Compound was evaluated for inhibition of pentagastrin induced gastric acid secretion in rats after id administration at dose of 0.3 umol/kg; assay type: functional; settings: Stomach
Rattus norvegicus [8] = test: Compound was evaluated for in vivo inhibition of pentagastrin induced gastric acid secretion in rats after iv administration at dose of 0.1 umol/kg; assay type: functional; settings: Stomach
Rattus norvegicus [9] = test: Compound was evaluated for in vivo inhibition of pentagastrin induced gastric acid secretion in rats after id administration at dose of 0.3 umol/kg; Not determined; assay type: functional, organism-based; settings: Stomach

Row | SMILES | IC50 [3] | inhibition in vivo at 0.03 µmol/kg (Rattus norvegicus [4]) | further results
1 | Cc1cccc(NC(=O)N[C@@H]2N=C(c3ccccc3)c3ccccc3N(CC(=O)c3ccccc3C)C2=O)c1 | 0.11 nM | 80% | ED50 (Rattus norvegicus [1]): 0.0078 µmol/kg; inhibition in vivo at 0.3 µmol/kg (Rattus norvegicus [2]): 16%; IC50 [5]: 146 nM
2 | CCC(C)(C)C(=O)CN1C(=O)C(NC(=O)Nc2cccc(C)c2)N=C(c2ccccc2)c2ccccc21 (configuration not stated) | 0.57 nM | – | –
3 | CCC(CC)C(=O)CN1C(=O)C(NC(=O)Nc2cccc(C)c2)N=C(c2ccccc2)c2ccccc21 (configuration not stated) | 1.9 nM | – | –
4 | Cc1cccc(NC(=O)NC2N=C(c3ccccc3)c3ccccc3N(CC(=O)C3(C)CCCCC3)C2=O)c1 (configuration not stated) | 0.38 nM | – | –
5 | Cc1cccc(NC(=O)NC2N=C(c3ccccc3)c3ccccc3N(CC(=O)C3CCC3)C2=O)c1 (configuration not stated) | 2.37 nM | – | –
6 | Cc1cccc(NC(=O)N[C@@H]2N=C(c3ccccc3)c3ccccc3N(CC(=O)C3CCCC3)C2=O)c1 | – | 79.9% | inhibition in vivo at 0.3 µmol/kg (Rattus norvegicus [2]): 31%
7 | Cc1cccc(NC(=O)NC2N=C(c3ccccc3)c3ccccc3N(CC(=O)C3CCCC3)C2=O)c1 (configuration not stated) | 0.23 nM | 65.2% | ED50 (Rattus norvegicus [6]): 0.0155 µmol/kg; inhibition in vivo at 0.3 µmol/kg (Rattus norvegicus [7]): 36%
8 | Cc1cccc(NC(=O)NC2N=C(c3ccccc3)c3ccccc3N(CC(=O)C3CCCCCC3)C2=O)c1 (configuration not stated) | 2 nM | 53.5% | –
9 | Cc1cccc(NC(=O)NC2N=C(c3ccccc3)c3ccccc3N(CC(=O)C3CCCCC3)C2=O)c1 (configuration not stated) | 0.4 nM | – | inhibition in vivo at 0.1 µmol/kg (Rattus norvegicus [8]): 67%
10 | Cc1cccc(NC(=O)N[C@@H]2N=C(c3ccccc3)c3ccccc3N(C)C2=O)c1 [L-365260] | – | 0% | inhibition (Rattus norvegicus [9]): inactive; ED50 (Rattus norvegicus [1]): 4.23 µmol/kg
11 | Cc1cccc(NC(=O)NC2N=C(c3ccccc3)c3ccccc3N(CC(=O)C(C)C)C2=O)c1 (configuration not stated) | 2.1 nM | – | –
12 | Cc1cccc(NC(=O)NC2N=C(c3ccccc3)c3ccccc3N(CC(=O)C3(C)CC3)C2=O)c1 (configuration not stated) | 0.41 nM | – | –
13 | Cc1cccc(NC(=O)NC2N=C(c3ccccc3)c3ccccc3N(CC(=O)C(C)(C)C)C2=O)c1 (configuration not stated) | 0.52 nM | 76.7% | ED50 (Rattus norvegicus [1]): 0.0057 µmol/kg; inhibition in vivo at 0.3 µmol/kg (Rattus norvegicus [2]): 80%
14 | Cc1cccc(NC(=O)NC2N=C(c3ccccc3)c3ccccc3N(CC(=O)C3(C)CCCC3)C2=O)c1 (configuration not stated) | 0.1 nM | – | –
15 | Cc1cccc(NC(=O)N[C@H]2N=C(c3ccccc3)c3ccccc3N(CC(=O)C3CCCC3)C2=O)c1 | 6.1 nM | – | –
16 | Cc1cccc(NC(=O)NC2N=C(c3ccccc3)c3ccccc3N(CC(=O)CC3CCCCC3)C2=O)c1 (configuration not stated) | 0.28 nM | – | –
17 | Cc1cccc(NC(=O)NC2N=C(c3ccccc3)c3ccccc3N(CC(=O)C(C)(C)C3CCCCC3)C2=O)c1 (configuration not stated) | 0.86 nM | – | –
